Data on ten compounds can be found in ChEMBL document CHEMBL1201862, “PubChem BioAssay data set” (2004).

SMILES strings stand for the structures.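 Following 48 hours of exposure in 96-well plates, responses at five concentrations were used to interpolate endpoints linearly. At the GI50, growth is halved.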 Active and inactive are the calls of the source. Cut-off read from the data, not from the text of the source: active = GI50 up to about 1.1 µM and inactive = higher. Where only a bound is given, the exact number is not on record here.

Among the test systems are UACC-257; LOX IMVI; MDA-MB-435; K562; KM12; IGROV-1; 786-0; CCRF-CEM; SK-MEL-5; DU-145; SF-268; PC-3; Hs-578T; OVCAR-5; HCT-116; NCI/ADR-RES; MDA-N; SK-MEL-28; RPMI-8226; A498.
Holding throughout (assay): growth of human tumour cells (NCI), 48 h

For the compound `CCCC(c1cc(C(C)(C)C)c(O)cc1C)c1cc(C(C)(C)C)c(O)cc1C`, the GI50 in the assay with UACC-257 is 2.31 µM (inactive); with LOX IMVI, 1.87 µM (inactive); in the assay on MDA-MB-435, 2.59 µM (inactive); in the assay on K562, 2.23 µM (inactive); in the assay on KM12, 3.32 µM (inactive); in the assay on IGROV-1 it was 4.04 µM (inactive). Moreover, the GI50 is 2.31 µM (inactive) in the assay with 786-0; 2.71 µM (inactive) with CCRF-CEM; 1.77 µM (inactive) in the assay with SK-MEL-5; 4.05 µM (inactive) in the assay with DU-145; 4.4 µM (inactive) in the assay on SF-268; 3.29 µM (inactive) with PC-3. Moreover, the GI50 is 2.79 µM (inactive) with Hs-578T; 2.13 µM (inactive) in the assay with OVCAR-5; 1.91 µM (inactive) with HCT-116; 3.4 µM (inactive) with NCI/ADR-RES; 1.87 µM (inactive) in the assay with MDA-N; 3.48 µM (inactive) with SK-MEL-28. Further, the GI50 with RPMI-8226 is 2.24 µM (inactive); in the assay on A498 it was 2.05 µM (inactive).

With `O=C(O)/C=C\C(=O)Nc1ccccn1`, the GI50 in the assay with UACC-257, in the assay on LOX IMVI, in the assay with MDA-MB-435, in the assay on K562, in the assay on KM12 and with IGROV-1 was > 100 µM (inactive) each time. Also, the GI50 with 786-0, in the assay on CCRF-CEM, in the assay on SK-MEL-5, in the assay on DU-145, with SF-268 and in the assay on PC-3 was > 100 µM (inactive) throughout. In addition, the GI50 in the assay on Hs-578T, with OVCAR-5, with HCT-116, in the assay with NCI/ADR-RES, in the assay on MDA-N and in the assay with SK-MEL-28 was > 100 µM (inactive) each time. Besides, the GI50 in the assay with RPMI-8226 and in the assay with A498 was > 100 µM (inactive) throughout.

In the case of `O=C(O)CSCC(=O)Nc1ccc2cccc3c2c1CC3`, the GI50 in the assay with UACC-257, in the assay with LOX IMVI, in the assay on MDA-MB-435, in the assay on K562, with KM12 and with IGROV-1 was > 100 µM (inactive) each time. The GI50 with 786-0, with CCRF-CEM, in the assay with SK-MEL-5, in the assay on DU-145, with SF-268 and in the assay with PC-3 was > 100 µM (inactive) in each case. Besides, the GI50 in the assay on Hs-578T, with OVCAR-5, with HCT-116, in the assay with NCI/ADR-RES, in the assay with MDA-N and in the assay with SK-MEL-28 was > 100 µM (inactive) in each case. For the same compound, the GI50 in the assay with RPMI-8226 and in the assay on A498 was > 100 µM (inactive) throughout.

For `C[C@H](CCc1nc(C#N)c(N)o1)[C@H]1CC[C@H]2[C@@H]3[C@@H](O)CC4C[C@@H](O)CC[C@]4(C)[C@H]3C[C@@H](O)[C@]12C` (stereo not given in full), the GI50 is 19.7 µM (inactive) in the assay with UACC-257; 12.1 µM (inactive) in the assay on LOX IMVI; 22 µM (inactive) in the assay on MDA-MB-435; 23.1 µM (inactive) in the assay with K562; 17.7 µM (inactive) with KM12; 10.2 µM (inactive) with IGROV-1. In addition, the GI50 in the assay on 786-0 is 19.2 µM (inactive); in the assay with CCRF-CEM, 0.498 µM (active); in the assay with SK-MEL-5, 18.9 µM (inactive); in the assay with DU-145, 28.1 µM (inactive); with SF-268 it was 20.2 µM (inactive); in the assay with PC-3, 9.95 µM (inactive). Also, the GI50 in the assay on Hs-578T is 20.5 µM (inactive); in the assay on OVCAR-5, 23.3 µM (inactive); in the assay with HCT-116 it was 21.4 µM (inactive); in the assay on NCI/ADR-RES, > 78.9 µM (inactive); with MDA-N, 25.9 µM (inactive); in the assay with SK-MEL-28 it was 25.6 µM (inactive). In addition, the GI50 in the assay with RPMI-8226 was 6.75 µM (inactive); with A498, 39.1 µM (inactive).

Turning to `O=c1cn[nH]c(=S)n1/N=C/c1c[nH]c2ccccc12`, the GI50 in the assay with UACC-257 is 63 µM (inactive); in the assay on LOX IMVI it was 30 µM (inactive); in the assay on MDA-MB-435, 58.5 µM (inactive); in the assay on K562, 48 µM (inactive); in the assay with KM12, > 100 µM (inactive); with IGROV-1, 0.564 µM (active). Moreover, the GI50 with 786-0 is > 100 µM (inactive); in the assay with CCRF-CEM, 11.3 µM (inactive); in the assay with SK-MEL-5, > 100 µM (inactive); in the assay with DU-145, > 100 µM (inactive); in the assay on SF-268 it was > 100 µM (inactive); with PC-3, 77.6 µM (inactive). Further, the GI50 in the assay on Hs-578T is > 100 µM (inactive); in the assay with OVCAR-5 it was > 100 µM (inactive); in the assay with HCT-116, > 100 µM (inactive); with NCI/ADR-RES, > 100 µM (inactive); with MDA-N it was 87.1 µM (inactive); in the assay with SK-MEL-28, > 100 µM (inactive). Besides, the GI50 was 49.5 µM (inactive) with RPMI-8226 and > 100 µM (inactive) with A498.

Take `O=C1CC(c2ccco2)C2(C(=O)NC(=O)NC2=O)C(c2ccco2)C1` (stereo not given): the GI50 in the assay on UACC-257, in the assay with LOX IMVI, in the assay on MDA-MB-435, in the assay with K562, with KM12 and with IGROV-1 was > 75 µM (inactive) in each case. The GI50 with 786-0, in the assay on CCRF-CEM, in the assay on SK-MEL-5, in the assay with DU-145, in the assay with SF-268 and with PC-3 was > 75 µM (inactive) throughout. The GI50 in the assay on Hs-578T, in the assay with OVCAR-5, in the assay on HCT-116, in the assay with NCI/ADR-RES, in the assay on MDA-N and with SK-MEL-28 was > 75 µM (inactive) throughout. Also, the GI50 with RPMI-8226 and with A498 was > 75 µM (inactive) each time.

Turning to `COc1cc(Cn2c3c(c4cc(O)ccc42)Cc2ccccc2C3=O)cc(OC)c1`, the GI50 is > 100 µM (inactive) in the assay with UACC-257; 76.4 µM (inactive) with LOX IMVI; 11.9 µM (inactive) with MDA-MB-435; 44.7 µM (inactive) in the assay with K562; 39.2 µM (inactive) in the assay on KM12; 44.8 µM (inactive) in the assay on IGROV-1. Also, the GI50 is 58.3 µM (inactive) in the assay with 786-0; 22.6 µM (inactive) with CCRF-CEM; 35.7 µM (inactive) in the assay with SK-MEL-5; 58.1 µM (inactive) in the assay with DU-145; > 100 µM (inactive) in the assay on SF-268; 56.5 µM (inactive) in the assay on PC-3. Also, the GI50 was > 100 µM (inactive) in the assay on Hs-578T; 19.1 µM (inactive) in the assay on OVCAR-5; 34.4 µM (inactive) with HCT-116; 21.3 µM (inactive) in the assay on NCI/ADR-RES; 12 µM (inactive) with MDA-N; 31.8 µM (inactive) in the assay on SK-MEL-28. Further, the GI50 with RPMI-8226 was 5.62 µM (inactive); with A498, > 100 µM (inactive).

Regarding `COc1ncc(C#CC(=O)c2ccccc2)c(OC)n1`, the GI50 in the assay on UACC-257 was 5.64 µM (inactive); in the assay with LOX IMVI, 0.815 µM (active); in the assay on MDA-MB-435, 3.91 µM (inactive); in the assay on K562, 0.726 µM (active); in the assay on KM12, 6.85 µM (inactive); in the assay with IGROV-1, 2.1 µM (inactive). For the same compound, the GI50 in the assay on 786-0 was 2.04 µM (inactive); in the assay with CCRF-CEM, 0.183 µM (active); in the assay on SK-MEL-5 it was 2.09 µM (inactive); with DU-145, 8.07 µM (inactive); in the assay with SF-268 it was 10.4 µM (inactive); with PC-3, 1.89 µM (inactive). Moreover, the GI50 with Hs-578T was 24.5 µM (inactive); in the assay with OVCAR-5 it was 5.04 µM (inactive); in the assay with HCT-116 it was 4.95 µM (inactive); with NCI/ADR-RES, 2.72 µM (inactive); with MDA-N, 1.71 µM (inactive); with SK-MEL-28, 5.11 µM (inactive). Besides, the figures for the GI50 in the assay with RPMI-8226 and with A498 were 2.33 µM (inactive) and 17.9 µM (inactive), respectively.

In the case of `CNCCCNc1c2ccccc2nc2cccc([N+](=O)[O-])c12`, the GI50 is 0.0189 µM (active) in the assay with UACC-257; 0.00604 µM (active) in the assay with LOX IMVI; 0.00166 µM (active) in the assay with MDA-MB-435; 0.00407 µM (active) in the assay with K562; 0.0064 µM (active) in the assay with KM12; 0.00726 µM (active) with IGROV-1. Besides, the GI50 with 786-0 is 0.00323 µM (active); with CCRF-CEM it was 0.00986 µM (active); with SK-MEL-5 it was 0.00507 µM (active); in the assay on DU-145, 0.00378 µM (active); in the assay with SF-268 it was 0.00225 µM (active); with PC-3, 0.00182 µM (active). The GI50 is 0.00299 µM (active) with Hs-578T; 0.00459 µM (active) in the assay with OVCAR-5; 0.00242 µM (active) in the assay on HCT-116; 0.00861 µM (active) with NCI/ADR-RES; 0.0016 µM (active) in the assay with MDA-N; 0.0109 µM (active) in the assay with SK-MEL-28. Further, the values for the GI50 in the assay with RPMI-8226 and in the assay on A498 were 0.00348 µM (active) and 0.0029 µM (active), respectively.

In the case of `Cc1cc(=O)oc2cc(OC(=O)N(CCCl)CCCl)ccc12`, the GI50 with UACC-257 was > 100 µM (inactive); in the assay on LOX IMVI, 59.8 µM (inactive); in the assay with MDA-MB-435 it was > 100 µM (inactive); in the assay with K562, 68.5 µM (inactive); in the assay on KM12, > 100 µM (inactive); in the assay on IGROV-1, 94.4 µM (inactive). The GI50 in the assay with 786-0 is > 100 µM (inactive); in the assay on CCRF-CEM it was 90.4 µM (inactive); in the assay on SK-MEL-5 it was > 100 µM (inactive); in the assay with DU-145, > 100 µM (inactive); with SF-268, > 100 µM (inactive); in the assay with PC-3, 46.8 µM (inactive). The GI50 in the assay on Hs-578T was > 100 µM (inactive); in the assay with OVCAR-5, > 100 µM (inactive); in the assay on HCT-116, > 100 µM (inactive); in the assay on NCI/ADR-RES, 99.1 µM (inactive); in the assay on MDA-N, > 100 µM (inactive); in the assay with SK-MEL-28, > 100 µM (inactive). Besides, the figures for the GI50 in the assay with RPMI-8226 and in the assay with A498 were 61.4 µM (inactive) and > 100 µM (inactive), respectively.
